From patent US20100324036A1, “SUBSTITUTED IMIDAZOPYRIDINE DERIVATIVES AS MELANOCORTIN-4 RECEPTOR ANTAGONISTS” (SANTHERA PHARMACEUTICALS (SCHWEIZ) AG, priority 2007, published 2010)

Columns and labels:
[1] = molecular target: T1, hMC-4R (Homo sapiens, UniProt P32245); assay: Membrane binding assay, competition with fluorescence labeled NDP-alpha-MSH (fluorescence polarization); set-up: expressed in transfected cells; host or cells: HEK293 cells (membrane preparations); details: HEK293 cell membrane preparations
[2] = molecular target: T1, hMC-4R; assay: Functional assay, cAMP formation in HEK293 membrane preparations (fluorescence polarization)

T1 sequence (P32245 whole entry): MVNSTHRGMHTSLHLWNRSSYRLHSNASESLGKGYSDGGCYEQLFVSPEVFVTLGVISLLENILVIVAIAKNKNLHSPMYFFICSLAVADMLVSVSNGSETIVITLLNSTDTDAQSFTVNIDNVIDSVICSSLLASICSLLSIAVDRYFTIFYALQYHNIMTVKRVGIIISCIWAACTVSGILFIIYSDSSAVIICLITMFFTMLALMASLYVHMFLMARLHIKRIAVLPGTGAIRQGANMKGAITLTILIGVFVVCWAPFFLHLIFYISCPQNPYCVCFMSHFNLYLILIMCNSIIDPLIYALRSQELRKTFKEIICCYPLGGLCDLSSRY

CCOC(=O)c1nc2ccc(C(=O)N(CCC(C)C)CCC(C)C)cn2c1CCCN1CCCC1 [Example 1] showed an IC50 [1] of under 100 nM.

CC(C)CCN(CCC(C)C)C(=O)c1ccc2nc(C(=O)N3CCCC3)c(CCCN3CCCC3)n2c1 [Example 2] showed an IC50 [1] of 100 to 1000 nM.

CNC(=O)c1nc2ccc(C(=O)N(CCC(C)C)CCC(C)C)cn2c1CCCN1CCCC1 [Example 3] was tested, and the IC50 [1] was 100 to 1000 nM.

CCNC(=O)c1nc2ccc(C(=O)N(CCC(C)C)CCC(C)C)cn2c1CCCN1CCCC1 [Example 4] showed an IC50 [1] of 100 to 1000 nM.

CC(C)CCN(CCC(C)C)C(=O)c1ccc2nc(CO)c(CCCN3CCCC3)n2c1 [Example 5] showed an IC50 [1] of 100 to 1000 nM.

Work on CC(C)CCN(CCC(C)C)C(=O)c1ccc2nc(C3CC3)c(CCCN3CCCC3)n2c1 [Example 6] yielded an IC50 [1] of 100 to 1000 nM.

Compound CC(C)CCN(CCC(C)C)C(=O)c1ccc2nc(C(=O)OC(C)C)c(CCCN3CCCC3)n2c1 [Example 7] has an IC50 [1] of 100 to 1000 nM and an EC50 [2] of 100 to 1000 nM.

CC(C)CCN(CCC(C)C)C(=O)c1ccc2nc(C#N)c(CCCN3CCCC3)n2c1 [Example 8] was tested, and the IC50 [1] was over 1000 nM and the EC50 [2] was 100 to 1000 nM.

COCc1noc(-c2nc3ccc(C(=O)N(CCC(C)C)CCC(C)C)cn3c2CCCN2CCCC2)n1 [Example 9] showed an IC50 [1] of under 100 nM and an EC50 [2] of 100 to 1000 nM.

Work on Cc1noc(-c2nc3ccc(C(=O)N(CCC(C)C)CCC(C)C)cn3c2CCCN2CCCC2)n1 [Example 10] yielded an IC50 [1] of under 100 nM and an EC50 [2] of under 100 nM.

Work on CC(C)CCN(CCC(C)C)C(=O)c1ccc2nc(-c3nc(C(C)(C)O)no3)c(CCCN3CCCC3)n2c1 [Example 11] yielded an IC50 [1] of 100 to 1000 nM.

CC(C)CCN(CCC(C)C)C(=O)c1ccc2nc(-c3nc(C4CC4)no3)c(CCCN3CCCC3)n2c1 [Example 12] showed an IC50 [1] of under 100 nM.

In the case of CC(C)CCN(CCC(C)C)C(=O)c1ccc2nc(-c3n[nH]c(=O)n3C)c(CCCN3CCCC3)n2c1 [Example 13], the IC50 [1] is reported as 100 to 1000 nM.

Work on CCOC(=O)CCc1nc2ccc(C(=O)N(CCC(C)C)CCC(C)C)cn2c1CCCN(C)C [Example 14] yielded an IC50 [1] of 100 to 1000 nM.

CCOC(=O)c1nc2ccc(C(=O)N(CCC(C)C)CCC(C)C)cn2c1CCCN(C)C [Example 15] gave an IC50 [1] of 100 to 1000 nM.

For COCc1noc(-c2nc3ccc(C(=O)N(CCC(C)C)CCC(C)C)cn3c2CCCN(C)C)n1 [Example 16], the IC50 [1] was 100 to 1000 nM.

In the case of Cc1noc(-c2nc3ccc(C(=O)N(CCC(C)C)CCC(C)C)cn3c2CCCN(C)C)n1 [Example 17], the IC50 [1] is reported as 100 to 1000 nM.

Compound CC(C)CCN(CCC(C)C)C(=O)c1ccc2nc(-c3nc(C(C)(C)O)no3)c(CCCN(C)C)n2c1 [Example 18] has an IC50 [1] of 100 to 1000 nM and an EC50 [2] of 100 to 1000 nM.

COCCOC(=O)c1nc2ccc(C(=O)N(CCC(C)C)CCC(C)C)cn2c1CCCN1CCCC1 [Example 19] was tested, and the IC50 [1] was under 100 nM.

For CC(C)CCN(CCC(C)C)C(=O)c1ccc2nc(C(=O)OCC(C)C)c(CCCN3CCCC3)n2c1 [Example 20], the IC50 [1] was under 100 nM.

With CC(C)CCN(CCC(C)C)C(=O)c1ccc2nc(N(C)c3ccccn3)c(CCCN3CCCC3)n2c1 [Example 21] the IC50 [1] was 100 to 1000 nM.

CC(C)CCN(CCC(C)C)C(=O)c1ccc2nc(CNc3ccc4c(c3)OCO4)c(CCCN3CCCC3)n2c1 [Example 22] showed an IC50 [1] of under 100 nM.

For COc1cccc(N(C)c2nc3ccc(C(=O)N(CCC(C)C)CCC(C)C)cn3c2CCCN2CCCC2)c1 [Example 23], the IC50 [1] was 100 to 1000 nM.

CC(C)CCN(CCC(C)C)C(=O)c1ccc2nc(-c3ccc4nccn4c3)c(CCCN3CCCC3)n2c1 [Example 24] showed an IC50 [1] of under 100 nM.

CC(C)CCN(CCC(C)C)C(=O)c1ccc2nc(CCCNC(=O)OC(C)(C)C)c(CCCN3CCCC3)n2c1 [Example 26] showed an IC50 [1] of under 100 nM.

With CC(C)CCN(CCC(C)C)C(=O)c1ccc2nc(CCCN(C)C)c(CCCN3CCCC3)n2c1 [Example 27] the IC50 [1] was under 100 nM and the EC50 [2] was 100 to 1000 nM.

Compound CC(C)CCN(CCC(C)C)C(=O)c1ccc2nc(CCCN)c(CCCN3CCCC3)n2c1 [Example 28] has an IC50 [1] of under 100 nM.

CC(C)CCN(CCC(C)C)C(=O)c1ccc2nc(C(=O)N3CCN(C)CC3)c(CCCN3CCCC3)n2c1 [Example 29] gave an IC50 [1] of 100 to 1000 nM.
